assay: recombinant UMI read abundance after kanamycin selection (control-corrected) (log10(CPM+1)); higher = more efficient recombination; extreme values may be limits of the assay; sequences stand for … in AGTGCAGAGAAAATCGGCCAGTTTTCTCTGCCTGCAGTCCGCATGCCGTGGGACCCCTTGGGTTCTAACCTGTTGCCTAGATTTATGCAGCGGACTGCCTTTCTCCCAAAGTGATAAACCGG…AGGTTGGTTTCACT; site = the 11-nt donor
Summary of the method: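 Sequenced counts of recombinant UMIs were turned into CPM, averaged across replicates and scaled with control-derived factors. The reported figure is log10(CPM+1). Those UMIs, each 12 nt long, tagged donor and donor-binding-loop pairs on a plasmid with a promoterless kanamycin gene, screened as a pool in Escherichia coli with IPTG (0.07 mM) plus kanamycin or without selection.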
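Also: IS621 bridge recombinase in Escherichia coli cells against a fixed T5 target plasmid.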

Row | Sequence | recombinant UMI read abundance (log10)
1 | GCTAAAGCATGGACCGGTTTTCCCGGTAATCCGTATTTGAT (site GCTAAAGCTAT) | 1.92
2 | GCTAAAGCATGGACCGGTTTTCCCGGTAATCCGTATTTGAT (site TCTAAAGCTAT) | 0.378
3 | GCTAATACATGGACCGGTTTTCCCGGTAATCCGTATTTGGC (site ACTAATACTGC) | 0
4 | GCTAATACATGGACCGGTTTTCCCGGTAATCCGTATTTGGC (site CCTAATACTGC) | 0.772
5 | GCTAATACATGGACCGGTTTTCCCGGTAATCCGTATTTGGC (site GCTAATACTGC) | 0.0276
6 | GCTAATACATGGACCGGTTTTCCCGGTAATCCGTATTTGGC (site TCTAATACTGC) | 0.548
7 | GCTACAACATGGACCGGTTTTCCCGGTAATCCGTATTTGAG (site GCTACAACTCT) | 0.921
8 | GCTACGCCATGGACCGGTTTTCCCGGTAATCCGTATTTGCG (site GCTACGCCTCG) | 0.00779
9 | GCTACTGCATGGACCGGTTTTCCCGGTAATCCGTATTTGAG (site GCTACTGCTCT) | 1.49
10 | GCTACTGCATGGACCGGTTTTCCCGGTAATCCGTATTTGCC (site ACTACTGCTGG) | 1.44
11 | GCTACTGCATGGACCGGTTTTCCCGGTAATCCGTATTTGCC (site CCTACTGCTGG) | 0.983
12 | GCTACTGCATGGACCGGTTTTCCCGGTAATCCGTATTTGCC (site GATACTGCTGG) | 0
13 | GCTACTGCATGGACCGGTTTTCCCGGTAATCCGTATTTGCC (site GCAACTGCTGG) | 0
14 | GCTACTGCATGGACCGGTTTTCCCGGTAATCCGTATTTGCC (site GCCACTGCTGG) | 0.445
15 | GCTACTGCATGGACCGGTTTTCCCGGTAATCCGTATTTGCC (site GCGACTGCTGG) | 0
16 | GCTACTGCATGGACCGGTTTTCCCGGTAATCCGTATTTGCC (site GCTAATGCTGG) | 0
17 | GCTACTGCATGGACCGGTTTTCCCGGTAATCCGTATTTGCC (site GCTACAGCTGG) | 0
18 | GCTACTGCATGGACCGGTTTTCCCGGTAATCCGTATTTGCC (site GCTACCGCTGG) | 0
19 | GCTACTGCATGGACCGGTTTTCCCGGTAATCCGTATTTGCC (site GCTACGGCTGG) | 0
20 | GCTACTGCATGGACCGGTTTTCCCGGTAATCCGTATTTGCC (site GCTACTACTGG) | 1.21
21 | GCTACTGCATGGACCGGTTTTCCCGGTAATCCGTATTTGCC (site GCTACTCCTGG) | 0
22 | GCTACTGCATGGACCGGTTTTCCCGGTAATCCGTATTTGCC (site GCTACTGCTAG) | 0.00694
23 | GCTACTGCATGGACCGGTTTTCCCGGTAATCCGTATTTGCC (site GCTACTGCTCG) | 0
24 | GCTACTGCATGGACCGGTTTTCCCGGTAATCCGTATTTGCC (site GCTACTGCTGA) | 0
25 | GCTACTGCATGGACCGGTTTTCCCGGTAATCCGTATTTGCC (site GCTACTGCTGC) | 0

Row | Sequence | recombinant UMI read abundance (log10)
26 | GCTACTGCATGGACCGGTTTTCCCGGTAATCCGTATTTGCC (site GCTACTGCTGG) | 1.11
27 | GCTACTGCATGGACCGGTTTTCCCGGTAATCCGTATTTGCC (site GCTACTGCTGT) | 0
28 | GCTACTGCATGGACCGGTTTTCCCGGTAATCCGTATTTGCC (site GCTACTGCTTG) | 0.255
29 | GCTACTGCATGGACCGGTTTTCCCGGTAATCCGTATTTGCC (site GCTACTTCTGG) | 0
30 | GCTACTGCATGGACCGGTTTTCCCGGTAATCCGTATTTGCC (site GCTAGTGCTGG) | 0
31 | GCTACTGCATGGACCGGTTTTCCCGGTAATCCGTATTTGCC (site GCTATTGCTGG) | 0
32 | GCTACTGCATGGACCGGTTTTCCCGGTAATCCGTATTTGCC (site GCTCCTGCTGG) | 0
33 | GCTACTGCATGGACCGGTTTTCCCGGTAATCCGTATTTGCC (site GCTGCTGCTGG) | 0.274
34 | GCTACTGCATGGACCGGTTTTCCCGGTAATCCGTATTTGCC (site GCTTCTGCTGG) | 0.74
35 | GCTACTGCATGGACCGGTTTTCCCGGTAATCCGTATTTGCC (site GGTACTGCTGG) | 1.03
36 | GCTACTGCATGGACCGGTTTTCCCGGTAATCCGTATTTGCC (site GTTACTGCTGG) | 0.815
37 | GCTACTGCATGGACCGGTTTTCCCGGTAATCCGTATTTGCC (site TCTACTGCTGG) | 0.424
38 | GCTAGCCCATGGACCGGTTTTCCCGGTAATCCGTATTTGAT (site GCTAGCCCTAT) | 0.197
39 | GCTAGCCCATGGACCGGTTTTCCCGGTAATCCGTATTTGAT (site GCTCGCCCTAT) | 0.0134
40 | GCTAGCCCATGGACCGGTTTTCCCGGTAATCCGTATTTGAT (site GCTGGCCCTAT) | 0.00566
41 | GCTAGCCCATGGACCGGTTTTCCCGGTAATCCGTATTTGAT (site GCTTGCCCTAT) | 0.00951
42 | GCTCAGGCATGGACCGGTTTTCCCGGTAATCCGTATTTGTA (site GCTCAGGCTTA) | 1.71
43 | GCTCGAGCATGGACCGGTTTTCCCGGTAATCCGTATTTGCA (site GATCGAGCTTG) | 0.25
44 | GCTCGAGCATGGACCGGTTTTCCCGGTAATCCGTATTTGCA (site GCTCGAGCTTG) | 2.67
45 | GCTCGAGCATGGACCGGTTTTCCCGGTAATCCGTATTTGCA (site GGTCGAGCTTG) | 0.679
46 | GCTCGAGCATGGACCGGTTTTCCCGGTAATCCGTATTTGCA (site GTTCGAGCTTG) | 0.655
47 | GCTCGATCATGGACCGGTTTTCCCGGTAATCCGTATTTGCA (site GCTCGATCTTG) | 2.07
48 | GCTCGCGCATGGACCGGTTTTCCCGGTAATCCGTATTTGGT (site GCTCGCGCTAC) | 0.984
49 | GCTCGGGCATGGACCGGTTTTCCCGGTAATCCGTATTTGAG (site GCTCGGGCTCT) | 0.866
50 | GCTCTAGCATGGACCGGTTTTCCCGGTAATCCGTATTTGAC (site GCTCTAGCTGT) | 1.67

Row | Sequence | recombinant UMI read abundance (log10)
51 | GCTCTCGCATGGACCGGTTTTCCCGGTAATCCGTATTTGTT (site GCTCTCGCTAA) | 0.534
52 | GCTGAACCATGGACCGGTTTTCCCGGTAATCCGTATTTGTC (site GCTGAACCTGA) | 0
53 | GCTGCGTCATGGACCGGTTTTCCCGGTAATCCGTATTTGGT (site GCTGCGTCTAC) | 0.732
54 | GCTGCTCCATGGACCGGTTTTCCCGGTAATCCGTATTTGCT (site GCTGCTCCTAG) | 0.276
55 | GCTGCTGCATGGACCGGTTTTCCCGGTAATCCGTATTTGCC (site GCTACTGCTGG) | 0.315
56 | GCTGCTGCATGGACCGGTTTTCCCGGTAATCCGTATTTGCC (site GCTCCTGCTGG) | 0
57 | GCTGCTGCATGGACCGGTTTTCCCGGTAATCCGTATTTGCC (site GCTGCTGCTGG) | 1.18
58 | GCTGCTGCATGGACCGGTTTTCCCGGTAATCCGTATTTGCC (site GCTTCTGCTGG) | 0
59 | GCTGCTTCATGGACCGGTTTTCCCGGTAATCCGTATTTGTA (site GCTGCTTCTTA) | 0.981
60 | GCTGGAGCATGGACCGGTTTTCCCGGTAATCCGTATTTGAG (site GCTGGAGCTCT) | 1.41
61 | GCTGGCGCATGGACCGGTTTTCCCGGTAATCCGTATTTGTA (site GCTGGCGCTTA) | 0.982
62 | GCTGTTACATGGACCGGTTTTCCCGGTAATCCGTATTTGCG (site GCTGTTACTCG) | 1.48
63 | GCTTAGTCATGGACCGGTTTTCCCGGTAATCCGTATTTGTT (site GCTTAGTCTAA) | 2.37
64 | GCTTGCACATGGACCGGTTTTCCCGGTAATCCGTATTTGAT (site GCTTGCACTAT) | 1.16
65 | GCTTGCACATGGACCGGTTTTCCCGGTAATCCGTATTTGAT (site GCTTGCCCTAT) | 0.00585
66 | GCTTGCACATGGACCGGTTTTCCCGGTAATCCGTATTTGAT (site GCTTGCGCTAT) | 0.0165
67 | GCTTGCACATGGACCGGTTTTCCCGGTAATCCGTATTTGAT (site GCTTGCTCTAT) | 0.396
68 | GCTTGCCCATGGACCGGTTTTCCCGGTAATCCGTATTTGCT (site GCTTGCCCTAA) | 0.0261
69 | GCTTGCCCATGGACCGGTTTTCCCGGTAATCCGTATTTGCT (site GCTTGCCCTAC) | 0.00338
70 | GCTTGCCCATGGACCGGTTTTCCCGGTAATCCGTATTTGCT (site GCTTGCCCTAG) | 0.858
71 | GCTTGCCCATGGACCGGTTTTCCCGGTAATCCGTATTTGCT (site GCTTGCCCTAT) | 0.0783
72 | GCTTGCGCATGGACCGGTTTTCCCGGTAATCCGTATTTGGT (site GCTTGCGCTAC) | 0.514
73 | GCTTGCTCATGGACCGGTTTTCCCGGTAATCCGTATTTGAT (site GCTTGCACTAT) | 0.00386
74 | GCTTGCTCATGGACCGGTTTTCCCGGTAATCCGTATTTGAT (site GCTTGCCCTAT) | 0
75 | GCTTGCTCATGGACCGGTTTTCCCGGTAATCCGTATTTGAT (site GCTTGCGCTAT) | 0.00706
